The supplement of paper PMC13380429

Columns and labels:
Settings in all cases: 72 h
[1] = tested on: Caco-2; test: cell viability relative to DMSO; higher = less toxic
[2] = tested on: Calu-3; test: as above
[3] = tested on: U2OS; test: as above
[4] = tested on: HepG2; test: as above
[5] = tested on: Vero E6; test: as above
[6] = tested on: Caco-2; test: drug sensitivity score (DSS) for viability; higher = more toxic; extreme values may be limits of the assay
[7] = tested on: Calu-3; test: as above
[8] = tested on: U2OS; test: as above
[9] = tested on: HepG2; test: as above
[10] = tested on: Vero E6; test: as above
[11] = tested on: Caco-2; test: relative viability EC50 (midpoint between 100% and the lowest measured viability); higher = less toxic
[12] = tested on: Calu-3; test: as above
[13] = tested on: U2OS; test: as above
[14] = tested on: HepG2; test: as above
[15] = tested on: Vero E6; test: as above

| Compound | cell viability ([1]; 1 nM) [%] | cell viability ([1]; 10 nM) [%] | cell viability ([1]; 100 nM) [%] | cell viability ([1]; 1000 nM) [%] | cell viability ([1]; 10000 nM) [%] | cell viability ([2]; 1 nM) [%] | cell viability ([2]; 10 nM) [%] | cell viability ([2]; 100 nM) [%] | cell viability ([2]; 1000 nM) [%] | cell viability ([2]; 10000 nM) [%] | cell viability ([3]; 1 nM) [%] | cell viability ([3]; 10 nM) [%] | cell viability ([3]; 100 nM) [%] | cell viability ([3]; 1000 nM) [%] | cell viability ([3]; 10000 nM) [%] | cell viability ([4]; 1 nM) [%] | cell viability ([4]; 10 nM) [%] | cell viability ([4]; 100 nM) [%] | cell viability ([4]; 1000 nM) [%] | cell viability ([4]; 10000 nM) [%] | cell viability ([5]; 1 nM) [%] | cell viability ([5]; 10 nM) [%] | cell viability ([5]; 100 nM) [%] | cell viability ([5]; 1000 nM) [%] | cell viability ([5]; 10000 nM) [%] | drug sensitivity score [6] | drug sensitivity score [7] | drug sensitivity score [8] | drug sensitivity score [9] | drug sensitivity score [10] | relative viability EC50 [11] [µM] | relative viability EC50 [12] [µM] | relative viability EC50 [13] [µM] | relative viability EC50 [14] [µM] | relative viability EC50 [15] [µM] |
| --- | --- | --- | --- | --- | --- | --- | --- | --- | --- | --- | --- | --- | --- | --- | --- | --- | --- | --- | --- | --- | --- | --- | --- | --- | --- | --- | --- | --- | --- | --- | --- | --- | --- | --- | --- |
| Cc1c(Cl)c(C)[n+]([O-])c(Cl)c1-c1noc(-c2cc(O)c(O)c([N+](=O)[O-])c2)n1 [opicapone] | 87.3 | 99 | 93.8 | 111 | 95.4 | 84.3 | 106 | 95.3 | 102 | 105 | 100 | 104 | 94.4 | 102 | 104 | 108 | 103 | 110 | 88.1 | 97.9 | 97.3 | 96.6 | 96.3 | 98.6 | 95.8 | 0 | 0 | 0 | 0.4 | 0 | > 10 | > 10 | > 10 | > 10 | > 10 |
| O=C(O)/C=C/c1ccc(O)c(O)c1 [caffeic-acid] | 89 | 92.8 | 90.9 | 94.7 | 108 | 93.1 | 111 | 109 | 95 | 102 | 94 | 100 | 95.9 | 100 | 105 | 101 | 104 | 106 | 97.5 | 105 | 99.1 | 96.7 | 102 | 94.1 | 104 | 0 | 0 | 0 | 0 | 0 | > 10 | > 10 | > 10 | > 10 | > 10 |
| NS(=O)(=O)c1cccc2c1c([N+](=O)[O-])cc1nc(O)c(O)nc12 [NBQX] | 102 | 99.3 | 97 | 95.6 | 102 | 101 | 85.9 | 92.4 | 93.9 | 103 | 104 | 106 | 98.5 | 103 | 102 | 101 | 105 | 101 | 92.7 | 106 | 103 | 100 | 101 | 101 | 99.8 | 0 | 0 | 0 | 0 | 0 | > 10 | > 10 | > 10 | > 10 | > 10 |
| Oc1c(I)cc(I)cc1I [AM-24] | 99.5 | 97.6 | 93 | 88.5 | 101 | 96.7 | 95 | 104 | 97.3 | 101 | 97.8 | 97.8 | 103 | 97.7 | 104 | 95.4 | 103 | 89.9 | 108 | 102 | 96.8 | 103 | 99.6 | 104 | 97.2 | 0 | 0 | 0 | 0 | 0 | > 10 | > 10 | > 10 | > 10 | > 10 |
| O=C1c2cccc(O)c2C(=O)c2c(O)cc(CO)cc21 [aloe-emodin] | 99.3 | 104 | 98.8 | 92.4 | 91.8 | 93.4 | 92.5 | 103 | 97.8 | 97.6 | 97 | 98 | 98.6 | 96.9 | 102 | 95 | 100 | 90.6 | 105 | 95.2 | 103 | 104 | 101 | 102 | 98.5 | 0 | 0 | 0 | 0 | 0 | > 10 | > 10 | > 10 | > 10 | > 10 |
| CN(C)CCCN1c2ccccc2Sc2ccccc21 [promazine] | 95.5 | 98.3 | 93.6 | 96.1 | 102 | 93.7 | 102 | 95.2 | 95.6 | 101 | 98.7 | 102 | 96.4 | 96.3 | 99.5 | 102 | 89.6 | 102 | 93.5 | 87.6 | 102 | 100 | 95.1 | 97.2 | 96 | 0 | 0 | 0 | 0.1 | 0 | > 10 | > 10 | > 10 | > 10 | > 10 |
| O=c1c(-n2ccnn2)c[nH]n1-c1cc(N2CCOCC2)ncn1 [molidustat] | 100 | 107 | 100 | 97.2 | 96 | 78.6 | 97.9 | 87.8 | 104 | 88 | 98.1 | 97.7 | 94.7 | 103 | 91.4 | 104 | 95.4 | 94.8 | 93.2 | 95.3 | 108 | 99.4 | 104 | 95.8 | 90.9 | 0 | 0 | 0 | 0 | 0 | > 10 | > 10 | > 10 | > 10 | > 10 |
| CCNC(=O)Nc1ccc(-c2nc3c(c(N4CCOC[C@@H]4C)n2)CCN(C2COC2)C3)cc1 [GDC-0349] | 107 | 95.7 | 82.3 | 51.7 | 35 | 101 | 100 | 79 | 39.5 | 29.5 | 102 | 98.9 | 94.6 | 66.2 | 21.1 | 114 | 99.8 | 95.9 | 49 | 26.3 | 106 | 105 | 94.2 | 81.2 | 40.3 | 11.1 | 13.7 | 8.3 | 10.4 | 5.6 | 0.295 | 0.211 | 1.17 | 0.6 | 1.46 |
| CN1C(=O)N(c2cc(Cl)cc(Cl)c2)C(=O)[C@]12CN(c1ccc(C(=O)O)cn1)C[C@H]2c1ccc(C#N)cc1 | 93.9 | 98.4 | 97.5 | 89 | 97.3 | 104 | 90.8 | 93.7 | 111 | 107 | 98.8 | 96.5 | 100 | 101 | 94.4 | 104 | 93.1 | 91.5 | 96.9 | 106 | 99.4 | 102 | 101 | 93.7 | 103 | 0 | 0 | 0 | 0 | 0 | > 10 | > 10 | > 10 | > 10 | > 10 |
| C[C@]12CC[C@H]3[C@@H](CC[C@]4(O)C[C@@H](O)CC[C@]34C=O)[C@@]1(O)CC[C@@H]2C1=CC(=O)OC1 [K-strophanthidin] | 87.6 | 110 | 99.4 | 68.5 | 38.8 | 98.2 | 102 | 107 | 92 | 25.8 | 96.9 | 98.7 | 96.6 | 72.4 | 5.2 | 96.4 | 88.6 | 102 | 46.2 | 14.8 | 99.5 | 98.8 | 72.6 | 1.9 | 0.9 | 7.3 | 5.4 | 9.3 | 11.1 | 21.8 | 0.975 | 2.28 | 1.43 | 0.807 | 0.151 |
| CCCCOCCOc1nc(-c2ccc(C(=O)O)c(F)c2)sc1C | 94.1 | 97.2 | 94.6 | 100 | 82 | 109 | 104 | 109 | 89.8 | 84.8 | 103 | 102 | 96.5 | 89.6 | 90.1 | 97.5 | 104 | 105 | 102 | 102 | 100 | 99.7 | 97.5 | 99.9 | 90.8 | 0.4 | 1 | 0.1 | 0 | 0 | > 10 | > 10 | > 10 | > 10 | > 10 |
| C[C@@H](NC(=O)[C@@H](N)Cc1ccc(O)cc1)C(=O)NCC(=O)N(C)[C@@H](Cc1ccccc1)C(=O)N[C@H](CO)CC[S+](C)[O-] (stereo not given in full) [FK-33-824] | 98 | 95.7 | 90.7 | 96.1 | 102 | 98.7 | 94.1 | 99.4 | 92.1 | 92.6 | 98.8 | 106 | 98.6 | 101 | 100 | 98.9 | 93.7 | 109 | 101 | 100 | 99.5 | 97.5 | 93.3 | 97 | 107 | 0 | 0 | 0 | 0 | 0 | > 10 | > 10 | > 10 | > 10 | > 10 |
| CCOc1c2c(c(OCC)c3ccccc13)C(=O)N(c1ccc(CC(=O)NS(=O)(=O)c3ccccc3)cc1)C2 | 96.3 | 94.8 | 97.7 | 90.3 | 89.8 | 94 | 98.6 | 102 | 98.1 | 98.2 | 99.4 | 100 | 96.4 | 98.9 | 97.2 | 97.6 | 87 | 104 | 93.1 | 104 | 96 | 95.1 | 97.9 | 89.1 | 101 | 0 | 0 | 0 | 0 | 0 | > 10 | > 10 | > 10 | > 10 | > 10 |
| CN1CCN(C(=O)C2C(C(=O)O)[C@H]3CC[C@@H]2O3)CC1 (stereo not given in full) [LB-100] | 103 | 85.7 | 99.8 | 84.7 | 36.5 | 95.6 | 91.5 | 106 | 92.8 | 86.7 | 103 | 92.9 | 99.4 | 96.2 | 95.6 | 98.6 | 97.3 | 109 | 96.6 | 102 | 98.3 | 101 | 93.1 | 99 | 106 | 5.9 | 0.5 | 0 | 0 | 0 | 1.58 | > 10 | > 10 | > 10 | > 10 |
| CSc1ccccc1Nc1nc(N2CCNCC2)nc2c(NCC3CC3)ncnc12 [KHK-IN-1] | 103 | 107 | 98.7 | 104 | 0.6 | 99.5 | 95.4 | 106 | 94.1 | 0.2 | 97.6 | 98.7 | 95.7 | 98.2 | 0.1 | 104 | 91 | 94.1 | 91.6 | 0 | 101 | 98.1 | 96.1 | 89.1 | 0.1 | 5.2 | 6.4 | 5.8 | 6.9 | 7.3 | 3.39 | 2.7 | 3.04 | 2.47 | 2.26 |
